Experimental data from patent publication US11191765B2, “Heterocyclic compounds for the inhibition of PASK” (BioEnergenix LLC, priority 2012, dated 2021).

Key:
PASK = PASK (UniProt #Q96RG2; human recombinant N-terminal GST tagged construct, residues 879-1323) (Homo sapiens (Human), UniProt Q96RG2); test: PASK ATP Radiochemical Assay; assay type: biochemical; settings: radiochemical 33P-ATP assay, Myelin Basic Protein substrate, 120 min at room temperature; read-out: IC50 Kinase Domain
Experimental: Biochemical Assay for hPASK Activity
PASK ATP Radiochemical Assay
Purified PASK (UniProt #Q96RG2; human recombinant N-terminal GST tagged construct, residues 879-1323) from insect cells (final concentration 5 nM) is added to freshly prepared Base Reaction Buffer containing 20 mM HEPES (pH 7.5), 10 mM MgCl2, 1 mM EGTA, 0.02% Brij35, 0.02 mg/ml BSA, 0.1 mM Na3VO4, 2 mM DTT, 1% DMSO and Myelin Basic Protein (20 μM final). Test compounds in DMSO are then added and the mixture, followed by delivery of ^33P-ATP (specific activity 0.01 μCi/μl final) to initiate the reaction. The kinase reaction is incubated for 120 min at room temperature. The entire reaction mixture is washed through onto a P81 Phosphocellulose paper and washed three times for 10 minutes in 75 mM phosphoric acid and once in methanol prior to drying and scintillation counting.

PASK (Invitrogen) = PASK (Invitrogen) (Homo sapiens (Human), UniProt Q96RG2); test: PAS Kinase FRET Assay; assay type: biochemical; settings: TR-FRET (665 nm/615 nm), Ulight-peptide substrate, 2 hours at 25° C.; read-out: IC50 Kinase Domain
Source text: The aim of the FRET assay is to determine the inhibition potential of test compounds on targeted kinase. This assay platform provides a homogenous screening method for measuring kinase activity by quantitating the amount of phospho-substrate in solution following a kinase reaction.
In the presence of kinase and ATP, the Ulight-peptide is phosphorylated and captured by an anti-phospho-substrate antibody, which brings the Eu chelate donor and Ulight acceptor dyes into close proximity. Upon excitation at 340 nm, the Eu chelate transfers its energy to the Ulight dye, resulting in a fluorescent light emission at 665 nm.
Titration of kinase at 1 mM ATP was achieved via the following protocol. After making serial three-fold dilutions of PASK (Invitrogen) in reaction buffer across the plate; 5 μl of kinase dilution and 5 μl substrate/ATP mix were added to the wells of the white Optiplate-384 (PerkinElmer). The contents of the plate were and incubated at RT for 1 h. The reaction was stopped by adding 5 μl of stop solution to each test well followed by mixing and incubation at RT for 10 minutes. 5 μl of detection mix (detection antibody diluted in detection buffer) was added; the contents of the plate were mixed and then incubated in the dark for 1 hour at RT. The signal was recorded at TR-FRET mode (665 nm/615 nm). The results were graphed to calculate the EC50.
Titration of ATP at the EC50 concentration of kinase to determine ATP Km,app. was performed using the following method. After making serial dilutions of ATP (Invitrogen), 5 μl of ATP dilution and 5 μl substrate/kinase mix were added to the wells of the white Optiplate-384 (PerkinElmer). The contents of the plate were and incubated at RT for 1 h. The reaction was stopped by adding 5 μl of stop solution to each test well followed by mixing and incubation at RT for 10 minutes. 5 μl of detection mix (detection antibody diluted in detection buffer) was added; the contents of the plate were mixed and then incubated in the dark for 1 hour at RT. The signal was recorded at TR-FRET mode (665 nm/615 nm). The results were graphed to calculate the EC50 as the ATP Km,app.
Compound screening was done via the following method. 10 mM stock solution of test compound in DMSO was prepared by dissolving test compound in DMSO at RT for 1 hour, and then sonicating at 100% output for 8 minutes. If compound is not soluble under this condition, it was diluted to 3 mM. Kinase reaction buffer was prepared containing 10 mM MgCl2, 50 mM HEPES, 1 mM EGTA, 0.01% TWEEN-20, 2 mM DTT. Serial dilutions of the test compounds were prepared at 4×final assay concentrations using Freedom EVO200® dispensing system as follows: 12×10^−5 M, 4×10^−5 M, 1.33×10^−5 M, 4.44×10^−6 M, 1.48×10^−6 M, 4.92×10^−7 M, 1.65×10^−7 M, 5.48×10^−7 M, 1.82×10^−8 M, 6.09×10^−9, 2.03×10^−9 M. Test compounds (2.5 μl at 4×the final assay concentration) was added to wells using Freedom EVO200® dispensing system. As a positive control, 2.5 μl of positive compound was added to assay wells, and 2.5 μl of DMSO to assay wells as vehicle control. Kinase solution was prepared in reaction buffer at 2×final assay concentration. Kinase solution (5 μl) was added to each well of the assay plate. The substrate and ATP solution was prepared in kinase reaction buffer at 4×final assay concentration. The kinase reaction was started by adding 2.5 μl of substrate+ATP mix solution to each well of the assay plate. The plate is mixed on a plate shaker; then covered and allowed to react for 2 hours in the dark at 25° C. without shaking. The reaction was stopped by adding 5 μl of stop solution to each test well followed by mixing and incubation at RT for 10 minutes in the dark. 5 μl of detection mix (detection antibody diluted in detection buffer) was added; the contents of the plate were mixed and then incubated in the dark for 1 hour at RT. The signal was recorded at TR-FRET mode (665 nm/615 nm).

Chain of PASK (Q96RG2 879-1323, change not shown): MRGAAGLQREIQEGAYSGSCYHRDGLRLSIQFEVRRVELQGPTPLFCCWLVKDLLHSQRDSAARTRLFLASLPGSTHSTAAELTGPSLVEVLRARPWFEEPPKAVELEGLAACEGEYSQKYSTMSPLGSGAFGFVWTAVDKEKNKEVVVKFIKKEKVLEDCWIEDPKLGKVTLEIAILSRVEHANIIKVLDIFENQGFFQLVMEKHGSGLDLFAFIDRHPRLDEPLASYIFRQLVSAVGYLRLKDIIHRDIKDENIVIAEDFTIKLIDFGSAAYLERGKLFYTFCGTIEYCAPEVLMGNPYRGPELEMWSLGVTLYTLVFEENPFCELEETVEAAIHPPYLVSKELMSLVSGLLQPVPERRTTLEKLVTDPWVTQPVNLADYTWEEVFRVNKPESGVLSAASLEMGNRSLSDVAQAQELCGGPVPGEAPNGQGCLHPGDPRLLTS
Chain of PASK (Invitrogen) (Q96RG2 999-1251): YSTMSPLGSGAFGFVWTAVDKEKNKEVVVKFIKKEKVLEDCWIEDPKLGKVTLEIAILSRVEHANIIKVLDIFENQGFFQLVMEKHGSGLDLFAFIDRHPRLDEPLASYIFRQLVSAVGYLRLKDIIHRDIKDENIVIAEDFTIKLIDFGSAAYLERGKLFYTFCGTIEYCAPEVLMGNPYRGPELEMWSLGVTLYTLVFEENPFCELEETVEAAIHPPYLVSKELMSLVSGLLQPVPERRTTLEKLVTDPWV

| Structure (SMILES) | IC50 (PASK) [µM] | IC50 (PASK (Invitrogen)) [µM] |
| --- | --- | --- |
| O=c1cc(-c2ccccc2)[nH]c2nc(-c3ccccc3Cl)nn12 [Example 36, 2-(2-Chlorophenyl)-5-phenyl-[1,2,4]triazolo[1,5-a]pyrimidin-7(4H)-one] | ≤ 10 |  |
| COc1ccc(-c2cc(=O)n3ncnc3[nH]2)cc1 [Example 38, 5-(4-Methoxyphenyl)-[1,2,4]triazolo[1,5-a]pyrimidin-7(4H)-one] | ≤ 10 |  |
| COc1ccccc1-c1cc(=O)n2nc(-c3ccccc3)nc2[nH]1 [Example 30, 5-(2-Methoxyphenyl)-2-phenyl-[1,2,4]triazolo[1,5-a]pyrimidin-7(4H)-one] | ≤ 10 |  |
| O=c1cc(-c2ccc3c(c2)OCO3)[nH]c2nc(-c3ccc(Cl)cc3)nn12 [Example 15, 5-(Benzo[d][1,3]dioxol-5-yl)-2-(4-chlorophenyl)-[1,2,4]triazolo[1,5-a]pyrimidin-7(4H)-one] | ≤ 10 | ≤ 10 |
| COc1ccc(-c2cc(=O)n3ncnc3[nH]2)cc1OC [Example 37, 5-(3,4-Dimethoxyphenyl)-[1,2,4]triazolo[1,5-a]pyrimidin-7(4H)-one] | ≤ 10 |  |
| COc1ccc(-c2cc(=O)n3nc(-c4ccccc4)nc3[nH]2)cc1 [Example 32, 5-(4-Methoxyphenyl)-2-phenyl-[1,2,4]triazolo[1,5-a]pyrimidin-7(4H)-one] | ≤ 10 |  |

The remaining lines, values ahead:

| IC50 (PASK) [µM] | IC50 (PASK (Invitrogen)) [µM] | Structure (SMILES) |
| --- | --- | --- |
| ≤ 10 |  | COc1ccc(-c2nc3[nH]c(-c4ccccc4)cc(=O)n3n2)cc1 [Example 35, 2-(4-Methoxyphenyl)-5-phenyl-[1,2,4]triazolo[1,5-a]pyrimidin-7(4H)-one] |
| ≤ 10 | ≤ 10 | COc1cc(-c2cc(=O)n3nc(-c4ccc(Cl)cc4)nc3[nH]2)ccc1Cl [Example 8, 5-(4-Chloro-3-methoxyphenyl)-2-(4-chlorophenyl)-[1,2,4]triazolo[1,5-a]pyrimidin-7(4H)-one] |
| ≤ 10 | ≤ 10 | COc1ccc(-c2cc(=O)n3nc(-c4ccc(Cl)cc4)nc3[nH]2)cc1 [Example 34, 2-(4-Chlorophenyl)-5-(4-methoxyphenyl)-[1,2,4]triazolo[1,5-a]pyrimidin-7(4H)-one] |
| ≤ 10 |  | O=c1cc(-c2ccccc2)[nH]c2nc(-c3ccccc3)nn12 [Example 31, 2,5-Diphenyl-[1,2,4]triazolo[1,5-a]pyrimidin-7(4H)-one] |
|  | ≤ 10 | NC(=O)c1nc2[nH]c(-c3ccc4nn[nH]c4c3)cc(=O)n2n1 [Example 24, 5-(1H-benzo[d][1,2,3]triazol-6-yl)-7-oxo-4,7-dihydro-[1,2,4]triazolo[1,5-a]pyrimidine-2-carboxamide] |
| ≤ 10 |  | COc1cccc(-c2cc(=O)n3nc(-c4ccccc4)nc3[nH]2)c1 [Example 33, 5-(3-Methoxyphenyl)-2-phenyl-[1,2,4]triazolo[1,5-a]pyrimidin-7(4H)-one] |
|  | ≤ 10 | O=c1cc(-c2ccc3[nH]ncc3c2)[nH]c2nc(-c3ccc(Cl)c(Cl)c3)nn12 [Example 10, 2-(3,4-Dichlorophenyl)-5-(1H-indazol-5-yl)-[1,2,4]triazolo[1,5-a]pyrimidin-7(4H)-one] |
